For data set [1] the following is noted: listed for preferred weak bases, no method given; cited from earlier work.
Data set [2] in a line: physchem. In kind it is physicochemical. The conditions noted are these: for solubility at 10 days: thermodynamic from solid. The text has this:
The buffer systems used for the pH-solubilization profile were 0.01 M sodium citrate/HCl with pH range 1.2–4.0, 0.01 M citrate-phosphate-borate/HCl with pH range 4.0–8.0, and 0.01M glycine/NaOH with pH range 8.0–12.0. In all the above mentioned buffers the ionic strength was maintained at 0.1M using sodium chloride. The effect of buffer species on the solubility of carbendazim at very low and high pH was not observed because the Ksp of each salt was not reached. Solubility at different pH was determined in the same manner as described below.
(§1) An excess amount of carbendazim was added to vials containing 2 ml of an aqueous solution of pH 2.00±0.15 and 7.00±0.15 at different concentrations (0, 1, 2.5, 5, and 10%) of cosolvents (EtOH, PG, PEG 400, and Glycerol), surfactants (Tween 20, Tween 80, sodium lauryl sulfate (SLS), and myristoyl camitine (MC)) and cyclodextrins (HPβCD and SBEβCD). In addition the cosolvents and cyclodextrins were studied at 20%. The sample vials were rotated at 20 rpm using an end-over-end mechanical rotator (Glas-Col Laboratory rotator, Terre Haute, Ind.) at ambient temperature for 10 days. Ten days was selected to ensure equilibrium because the strong crystal structure and high melting point (305° C.) (Budavari, S., 1996. The Merck Index, Twelfth ed. Merck & Co, New Jersey) of carbendazim contributes to a very slow dissolution rate. For solutions having pH greater than 9, the solubility was measured after 3 days rotation instead of 10 days because of the unstable nature of carbendazim in alkaline condition. The samples were filtered through a 0.45-μm filter and the pH at equilibrium was measured before performing HPLC analysis.
The HPLC assay used an Econosphere C8 column (150*4.6 mm, Alltech, Los Altos, Calif.) with a mobile phase composed of pure methanol. The flow rate was controlled at 1.0 ml/min (125 solvent Module, Beckman, Fullerton, Calif.) and the effluent was detected at 280 nm (168 detector, Beckman, Fullerton, Calif.). All experimental data are the average of duplicate values with an average error less than 3%.
The formation of a resonance-stabilized cation and anion is believed responsible for the high solubilities at low and high pH that are shown in FIG. 2. […] FIGS. 7–9 show the pH profile of three other drugs, obtained using analogous methods.

Data set [3] can be described thus: physchem. In kind it is physicochemical. Particulars: thermodynamic from solid, Solubility of carbendazim. The method, then:
as §1, with “Ten days was selected to ensure equilibrium because the strong crystal structure and high melting point (305° C.) (Budavari, S., 1996. The Merck Index, Twelfth ed. Merck & Co, New Jersey) of carbendazim contributes to a very slow dissolution rate.” left out
The HPLC assay used an Econosphere C8 column (150*4.6 mm, Alltech, Los Altos, Calif.) with a mobile phase composed of pure methanol. The flow rate was controlled at 1.0 ml/min (125 solvent Module, Beckman, Fullerton, Calif.) and the effluent was detected at 280 nm (168 detector, Beckman, Fullerton, Calif.). […]

Data set [4] is described as follows: in vivo. Particulars: mouse. From the text:
The bioavailability of carbendazim was studied in the mouse. An intravenous dose, a formulation of carbendazim in corn oil, and a formulation of carbendazim in phosphoric acid corresponding to the phosphoric acid concentration in Emetrol were each given to a mouse. The blood level on the graph is indicative of the amount of drug absorbed divided by the blood volume of the mouse.

Values after ≈ are worked out from the molar mass of the structure shown. Like-named read-outs stand apart in the source and are kept apart here.

This is an account of results in patent publication US7022712B2, “Solubilization of weak bases” (Arizona Board of Regents on Behalf of the University of …, priority 2002, dated 2006).

The pKa is the pH at which an ionisable group is half protonated. Take `Cc1cc(NC(=O)NC(=O)c2ccccc2N(C)C)ccc1Oc1ncc(N)cn1`: the pKa in data set [1] was about 5.
By solubility is commonly meant the dissolved amount per volume that the medium holds. Usually Cmax stands for the maximum level reached in the sampled fluid or tissue. One may read the bioavailability as dose-corrected exposure relative to a reference, in per cent. Read a high bioavailability as much systemic uptake. As to `COC(=O)Nc1nc2ccccc2[nH]1` [carbendazim, methyl 2-benzimidazolecarbamate], the intrinsic solubility in data set [2] (10 days) was found to be 6.11 µg/mL. Besides, the pKa in data set [2] (acidic pKa) turned out to be 10.6; in data set [2] (basic pKa), 4.5. In addition, the solubility at 10 days in data set [2] (pH 1, aqueous buffer) stood at 16000 µg/mL (≈ 83.7 mM); in data set [2] (pH 2, aqueous buffer), 1600 µg/mL (≈ 8.37 mM); in data set [3] (pH 2, aqueous buffer) it was 1640 µg/mL (≈ 8.58 mM); in data set [3] (pH 7, aqueous buffer), 6 µg/mL (≈ 0.0314 mM). Also, the concentration in data set [4] (iv, 6.4 ug) peaked (Cmax) at 15000 ng/mL. In addition, in data set [4] (iv, 6.4 ug), the bioavailability was 100%.
Corn oil: in data set [4] (po, 132 mg), the “% Bioavailability” value is given as 4.8–6.4% and the highest concentration (Cmax) was in the range of 15000 to 20000 ng/mL.
